This is an account of results in ChEMBL document CHEMBL1201862, “PubChem BioAssay data set” (2004).

Test systems include ACHN; BT-549; CAKI-1; CCRF-CEM; HCC 2998; HCT-116; IGROV-1; LOX IMVI; MCF7; MDA-MB-435; Malme-3M; NCI-H23; OVCAR-5; OVCAR-8; RXF 393; SK-MEL-28; SK-MEL-2; SN12C; SNB-75; UO-31.
What all share (assay): NCI anticancer screen, dose series, 48 h

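Cultured in 96-well plates, cells were exposed to test compound for 48 hours across five concentrations. Here, GI50 denotes the concentration required for 50% inhibition of growth.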 Active and inactive are the calls of the source. No stated cut-off is given here; in the data, active = GI50 up to about 1.1 µM and inactive = higher.

`CCOC(=O)C(NC(=O)CC(C)C)(N1CCN(c2cc3c(cc2F)c(=O)c(C(=O)O)cn3C2CC2)CC1)C(F)(F)F` (stereo unspecified): the GI50 in the assay with ACHN is 12.5 µM (inactive); in the assay on BT-549, 16.3 µM (inactive); with CAKI-1, 24.9 µM (inactive); in the assay with CCRF-CEM, 3.32 µM (inactive); in the assay on HCC 2998 it was 12 µM (inactive); with HCT-116 it was 20.4 µM (inactive). Besides, the GI50 in the assay with IGROV-1 is 12.6 µM (inactive); with LOX IMVI, 15.8 µM (inactive); with MCF7 it was 15.6 µM (inactive); with MDA-MB-435 it was 21.9 µM (inactive); in the assay with Malme-3M, 17.6 µM (inactive); in the assay with NCI-H23, 7.46 µM (inactive). For the same compound, the GI50 with OVCAR-5 was 17.7 µM (inactive); in the assay with OVCAR-8, 21.1 µM (inactive); in the assay on RXF 393 it was 17.2 µM (inactive); with SK-MEL-28, 20.9 µM (inactive); in the assay on SK-MEL-2 it was 20 µM (inactive); with SN12C, 27.5 µM (inactive). In addition, the figures for the GI50 in the assay with SNB-75 and in the assay with UO-31 were 21.4 µM (inactive) and 17.9 µM (inactive), respectively.
Turning to `O=C(O)[C@H]1NC[C@@H]2ON=C(Br)[C@@H]21`, the GI50 in the assay with ACHN, in the assay on BT-549, in the assay with CAKI-1, in the assay on CCRF-CEM, in the assay on HCC 2998 and with HCT-116 was > 100 µM (inactive) throughout. Further, the GI50 with IGROV-1, with LOX IMVI, in the assay with MCF7, with MDA-MB-435, in the assay on Malme-3M and in the assay on NCI-H23 was > 100 µM (inactive) each time. Moreover, the GI50 in the assay on OVCAR-5, in the assay on OVCAR-8, in the assay with RXF 393, with SK-MEL-28, in the assay on SK-MEL-2 and in the assay with SN12C was > 100 µM (inactive) each time. In addition, the GI50 in the assay with SNB-75 and with UO-31 was > 100 µM (inactive) each time.
For `O=C(CC(=O)Nc1ccccc1)NNC(Sc1ccccc1)c1cc(/N=N/c2ccc(Br)cc2)ccc1O` (stereo unspecified), the GI50 in the assay on ACHN is 2.47 µM (inactive); with BT-549, 5.12 µM (inactive); in the assay on CAKI-1, 4.82 µM (inactive); in the assay with CCRF-CEM, 0.417 µM (active); in the assay with HCC 2998 it was > 10 µM (inactive); in the assay with HCT-116, 0.448 µM (active). The GI50 was 5.07 µM (inactive) in the assay with IGROV-1; 2.49 µM (inactive) in the assay with LOX IMVI; 1.78 µM (inactive) in the assay on MCF7; 4.28 µM (inactive) with MDA-MB-435; 4.26 µM (inactive) with Malme-3M; 2.83 µM (inactive) in the assay with NCI-H23. Moreover, the GI50 was 7.98 µM (inactive) with OVCAR-5; 2.37 µM (inactive) in the assay on RXF 393; 2.92 µM (inactive) with SK-MEL-28; > 10 µM (inactive) in the assay with SK-MEL-2; 1.89 µM (inactive) in the assay with SN12C; 3.15 µM (inactive) with SNB-75. Further, in the assay with UO-31, the GI50 was 2.29 µM (inactive).
In the case of `N=C(N)SCCCN`, the GI50 with ACHN is 4.29 µM (inactive); in the assay with BT-549, 4.06 µM (inactive); in the assay on CAKI-1, 4.32 µM (inactive); in the assay on CCRF-CEM it was 1.39 µM (inactive); in the assay on HCC 2998, 0.0455 µM (active); in the assay with HCT-116 it was 3.86 µM (inactive). In addition, the GI50 was 3.83 µM (inactive) in the assay on IGROV-1; 3.3 µM (inactive) in the assay with LOX IMVI; 5.5 µM (inactive) in the assay on MCF7; 3.18 µM (inactive) in the assay on MDA-MB-435; 8.77 µM (inactive) in the assay with Malme-3M; 6.1 µM (inactive) in the assay with NCI-H23. The GI50 with OVCAR-5 was 32.6 µM (inactive); in the assay on OVCAR-8 it was 3.87 µM (inactive); in the assay on RXF 393, 4.29 µM (inactive); in the assay on SK-MEL-28, 28.2 µM (inactive); in the assay on SK-MEL-2, 13.2 µM (inactive); with SN12C it was 25.2 µM (inactive). Moreover, the GI50 in the assay with SNB-75 was 33.7 µM (inactive); in the assay with UO-31, 17.7 µM (inactive).
For `O=C(NC(Nc1ccc(F)c(Cl)c1)(C(F)(F)F)C(F)(F)F)OCc1ccccc1`, the GI50 with ACHN was 17.7 µM (inactive); with BT-549, 14.7 µM (inactive); with CAKI-1, 34.6 µM (inactive); with CCRF-CEM, 15.8 µM (inactive); with HCC 2998, 22.1 µM (inactive); in the assay with HCT-116 it was 47.5 µM (inactive). Moreover, the GI50 is 39 µM (inactive) in the assay on IGROV-1; 64.7 µM (inactive) in the assay on LOX IMVI; 19.4 µM (inactive) in the assay on MCF7; 32.1 µM (inactive) in the assay on MDA-MB-435; 43.5 µM (inactive) in the assay with Malme-3M; 71.4 µM (inactive) in the assay with NCI-H23. The GI50 is > 100 µM (inactive) in the assay on OVCAR-5; 35 µM (inactive) in the assay on OVCAR-8; 43.3 µM (inactive) in the assay with RXF 393; > 100 µM (inactive) in the assay with SK-MEL-28; 69.3 µM (inactive) in the assay with SK-MEL-2; 31.2 µM (inactive) with SN12C. The figures for the GI50 with SNB-75 and with UO-31 were 36.9 µM (inactive) and 19.8 µM (inactive), respectively.
For `O=C1O/C(=C(\Br)c2ccc([N+](=O)[O-])cc2)c2ccccc21`, the GI50 in the assay on ACHN is > 100 µM (inactive); with BT-549 it was > 79.8 µM (inactive); in the assay on CAKI-1, > 100 µM (inactive); in the assay on CCRF-CEM it was 21.4 µM (inactive); with HCC 2998 it was > 100 µM (inactive); with HCT-116, 97.9 µM (inactive). Moreover, the GI50 with IGROV-1 is > 100 µM (inactive); in the assay with LOX IMVI, 67.8 µM (inactive); with MCF7 it was 48.5 µM (inactive); in the assay on MDA-MB-435, 62.7 µM (inactive); in the assay on Malme-3M, > 49.9 µM (inactive); in the assay on NCI-H23, > 100 µM (inactive). The GI50 in the assay on OVCAR-5 was > 100 µM (inactive); in the assay with OVCAR-8, > 76.6 µM (inactive); with RXF 393, > 100 µM (inactive); in the assay with SK-MEL-28, > 100 µM (inactive); in the assay with SK-MEL-2 it was 46.2 µM (inactive); with SN12C, > 100 µM (inactive). For the same compound, the GI50 is > 78.3 µM (inactive) in the assay on SNB-75 and 62.8 µM (inactive) in the assay with UO-31.
On to `N#Cc1nc(/C=C/c2nc(C#N)c(N)o2)oc1N`, for which the GI50 in the assay on ACHN, in the assay with BT-549, in the assay with CAKI-1, with CCRF-CEM, in the assay with HCC 2998 and in the assay with HCT-116 was > 10 µM (inactive) each time. The GI50 in the assay with IGROV-1, in the assay with LOX IMVI, in the assay on MCF7, in the assay on MDA-MB-435, in the assay on Malme-3M and with NCI-H23 was > 10 µM (inactive) in each case. The GI50 in the assay with OVCAR-8, in the assay with RXF 393, in the assay on SK-MEL-28, with SN12C, in the assay with SNB-75 and with UO-31 was > 10 µM (inactive) each time.
Take `O=[N+]([O-])c1ccc(NN/N=N/c2ccc(-c3nc4ccccc4[nH]3)cc2)c([N+](=O)[O-])c1`: the GI50 in the assay on ACHN is 19.4 µM (inactive); with BT-549, 48.3 µM (inactive); with CAKI-1, 23.2 µM (inactive); in the assay on CCRF-CEM it was 9.04 µM (inactive); in the assay with HCC 2998 it was 31 µM (inactive); in the assay with HCT-116 it was 26.7 µM (inactive). The GI50 in the assay on IGROV-1 was 7.33 µM (inactive); in the assay with LOX IMVI, 7.48 µM (inactive); in the assay with MCF7 it was 4.27 µM (inactive); in the assay with MDA-MB-435, 54 µM (inactive); in the assay on Malme-3M it was 75 µM (inactive); in the assay on NCI-H23, 29 µM (inactive). In addition, the GI50 with OVCAR-5 was > 100 µM (inactive); in the assay on OVCAR-8, 22.5 µM (inactive); with RXF 393 it was 47.3 µM (inactive); with SK-MEL-28 it was > 100 µM (inactive); in the assay with SK-MEL-2 it was 29 µM (inactive); in the assay on SN12C it was 64.6 µM (inactive). Moreover, the figures for the GI50 in the assay with SNB-75 and with UO-31 were 96.6 µM (inactive) and 84.1 µM (inactive), respectively.
As to `C=CCC(C(=O)O)c1ccccc1` (stereo unspecified), the GI50 with ACHN, in the assay with BT-549, with CAKI-1, in the assay with CCRF-CEM, in the assay with HCC 2998 and with HCT-116 was > 100 µM (inactive) throughout. The GI50 with IGROV-1, in the assay with LOX IMVI, in the assay on MCF7, with MDA-MB-435, in the assay on Malme-3M and in the assay with NCI-H23 was > 100 µM (inactive) each time. The GI50 with OVCAR-5, with OVCAR-8, with RXF 393, in the assay on SK-MEL-28, with SK-MEL-2 and in the assay on SN12C was > 100 µM (inactive) in each case. The GI50 in the assay on SNB-75 and in the assay on UO-31 was > 100 µM (inactive) in each case.
In the case of `CC(C)Oc1cccc(N2C(CCc3c[nH]c4ccc(Br)cc34)=NS(=O)(=O)c3cnccc32)c1`, the GI50 was 28.7 µM (inactive) with ACHN; 57.4 µM (inactive) with BT-549; 22.7 µM (inactive) with CAKI-1; 95.5 µM (inactive) in the assay on CCRF-CEM; 60.4 µM (inactive) with HCC 2998; 20.3 µM (inactive) with HCT-116. Also, the GI50 in the assay with LOX IMVI is 59.7 µM (inactive); with MCF7, 21.5 µM (inactive); with MDA-MB-435 it was 46.2 µM (inactive); in the assay on Malme-3M, 80 µM (inactive); with NCI-H23, 61.9 µM (inactive); in the assay with OVCAR-5, 29.1 µM (inactive). Moreover, the GI50 was 51.2 µM (inactive) in the assay on OVCAR-8; 59.8 µM (inactive) in the assay on RXF 393; > 100 µM (inactive) with SK-MEL-28; 53.2 µM (inactive) with SK-MEL-2; 69 µM (inactive) in the assay with SN12C; 48 µM (inactive) in the assay with SNB-75. Also, in the assay on UO-31, the GI50 was 3.64 µM (inactive).
